Measurements reported in patent US11965159B2, “Compositions and methods for regulating proteins and nucleic acids activities” (THE BROAD INSTITUTE, INC., priority 2019, dated 2024).

Assays:
[1] = tested on: HEK293T cells; experiment: Cell viability assay (ATP content) of HEK293T cells; format: cell-based; conditions: up to 20 μM, 24 h
Experimental: FIG. 23—Cell viability assay (ATP content) of HEK293T cells in the presence of compounds. Measurement of ATP content of HEK293T cells upon incubating with BRD7087 and BRD5779 (5-20 μM) for 24 h. Error bars represent ±S.D. from technical replicates (n=3).
FIG. 67. Cell viability assay (ATP content) of HEK293T cells in the presence of compounds. Measurement of ATP content of HEK293T cells upon incubating with BRD7087 and BRD5779 (5-20 μM) for 24 h. Error bars represent ±S.D. from technical replicates (n=3).

[2] = biological target: T1, dCas9-cytidine deaminase conjugate (BE3) (UniProt P14739+P38483+Q99ZW2, D10A); experiment: BE3 base-editing of EMX1 gene in HEK293T cells; format: cell-based; conditions: 1.25-20 μM, 72 h; BE3:gRNA ribonucleoprotein delivery
T1 construct: His6 (N); made in house; host or cells: E. coli BL21 Star (DE3); purified protein lipofected as BE3:gRNA RNP into HEK293T cells
Experimental: Protein transfection of base editor BE3 into HEK293T cells. HEK293T cells were seeded on 48-well BioCoat® poly-D-lysine plates (Corning®) in 250 μL of antibiotic-free medium and transfected at ˜70% confluency. Prior to protein transfection, cells were incubated with 2 μL of DMSO-suspended BRD7087 or BRD5779 at the indicated concentration for 2-3 hours. BE3 protein was incubated with 1.1× molar excess of EMX1-targeting sgRNA at a final concentration ratio of 200 nM: 220 nM (based on a total well volume of 275 μL). The complex was mixed with 0.2 μL of compound for five minutes, incubated with 1.5 μL Lipofectamine™ 2000 (THERMOFISHER) and transfected according to the manufacturer's protocol plasmid delivery. […]
Purifications and sequencing of genomic DNA. […] Barcoded samples were pooled and purified by gel extraction (QIAGEN) before quantification using the Qubit™ dsDNA HS Kit (THERMOFISHER) and qPCR (KAPA BioSystems) according to the manufacturer's instructions. Sequencing of pooled samples was performed using a single-end read from 260 to 300 bases on the MiSeq™ ([…]) according to the manufacturer's instructions.
Analysis of base-edited sequences. Nucleotide frequencies were analyzed using a previously described MATLAB script 5. Briefly, the reads were aligned to the reference sequence via the Smith-Waterman algorithm. […]

Row | Structure (SMILES) | cellular ATP-levels [1] | inhibition of BE3-mediated base-editing (C→T conversion, EMX1) [2]
1 | COc1ccc(-c2ccc3c(c2)[C@H]2[C@H](CCN2Cc2ccncc2)[C@@H](CO)N3)cc1 [BRD5779, ((3aR,4S,9bR)-8-(4-Methoxyphenyl)-1-(pyridin-4-ylmethyl)-2,3,3a,4,5,9b-hexahydro-1H-pyrrolo[3,2-c]quinolin-4-yl)methanol] | did not significantly alter | efficient and dose-dependent inhibition
2 | OC[C@H]1Nc2ccc(-c3cccc(F)c3)cc2[C@H]2[C@@H]1CCN2Cc1ccncc1 [BRD7087, ((3aR,4S,9bR)-8-(3-Fluorophenyl)-1-(pyridin-4-ylmethyl)-2,3,3a,4,5,9b-hexahydro-1H-pyrrolo[3,2-c]quinolin-4-yl)methanol] | did not significantly alter | efficient and dose-dependent inhibition
